Measured values from the supplement of paper PMC10307832.

Experiments:
Assay in all cases: relative viability (nuclei count vs DMSO), 5 days (fraction); higher = more cells survive
[1] = compound: CC1=CC(=NN1)NC2=CC(=NC(=N2)/C=C/C3=CC=CC=C3)N4CCN(CC4)C + NC(=O)Nc1cc(-c2cccc(F)c2)sc1C(=O)N[C@H]1CCCNC1 [AZD7762] (partner 0.2 µM)
Method in brief: (§1)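 Each reported value is a median over duplicate plates. It expresses relative viability: treated-well nuclei count divided by vehicle-well nuclei count. Lung cancer cell lines in 1536-well plates were dosed by pin tool a day after seeding, alone with one drug or with a fixed anchor-drug dose plus five library-drug doses (not always all listed) in √10 steps, and nuclei were counted after 5 days.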

Obatoclax + Decitabine = compound: COC1=CC(c2cc3ccccc3[nH]2)=N/C1=C\c1[nH]c(C)cc1C [Obatoclax] + Nc1ncn([C@H]2C[C@H](O)[C@@H](CO)O2)c(=O)n1 [Decitabine] (partner 2 µM)
Method in brief: as §1

[2] = compound: CC1=CC(=NN1)NC2=CC(=NC(=N2)/C=C/C3=CC=CC=C3)N4CCN(CC4)C + CC(=O)c1c(C)c2cnc(Nc3ccc(N4CCNCC4)cn3)nc2n(C2CCCC2)c1=O [Palbociclib] (partner 0.5 µM)
Method in brief: as §1

[3] = compound: CC1=CC(=NN1)NC2=CC(=NC(=N2)/C=C/C3=CC=CC=C3)N4CCN(CC4)C + Nc1ncn([C@H]2C[C@H](O)[C@@H](CO)O2)c(=O)n1 [Decitabine] (partner 2 µM)
Method in brief: as §1

Q: Which results are given for PC-3 [JPC-3]?
A: relative viability ([1]; first compound 0.08 µM): 0.709; relative viability ([1]; first compound 0.253 µM): 0.805; relative viability ([1]; first compound 0.8 µM): 0.764; relative viability ([1]; first compound 2.53 µM): 0.554; relative viability ([1]; first compound 8 µM): 0.303; relative viability (Obatoclax + Decitabine; first compound 0.01 µM): 0.826; relative viability (Obatoclax + Decitabine; first compound 0.03162 µM): 0.799; relative viability (Obatoclax + Decitabine; first compound 0.1 µM): 0.776; relative viability (Obatoclax + Decitabine; first compound 0.3162 µM): 0.732; relative viability (Obatoclax + Decitabine; first compound 1 µM): 0.501; relative viability ([2]; first compound 0.08 µM): 0.537; relative viability ([2]; first compound 0.253 µM): 0.587; relative viability ([2]; first compound 0.8 µM): 0.54; relative viability ([2]; first compound 2.53 µM): 0.529; relative viability ([2]; first compound 8 µM): 0.491; relative viability ([3]; first compound 0.08 µM): 0.807; relative viability ([3]; first compound 0.253 µM): 0.882; relative viability ([3]; first compound 0.8 µM): 0.806; relative viability ([3]; first compound 2.53 µM): 0.834; relative viability ([3]; first compound 8 µM): 0.543

Q: SW 1573 was tested. Which relative viability (Obatoclax + Decitabine; first compound 0.01 µM) did it give?
A: The relative viability was 0.432.

Q: What about the relative viability (Obatoclax + Decitabine; first compound 0.03162 µM) of the same cell line?
A: The relative viability was 0.434.

Q: What about the relative viability (Obatoclax + Decitabine; first compound 0.1 µM) of the same cell line?
A: The relative viability was 0.437.

Q: And the relative viability (Obatoclax + Decitabine; first compound 0.3162 µM)?
A: The relative viability was 0.139.

Q: And the relative viability (Obatoclax + Decitabine; first compound 1 µM)?
A: The relative viability was 0.194.

Q: And the relative viability ([2]; first compound 0.08 µM)?
A: The relative viability was 0.378.

Q: What about the relative viability ([2]; first compound 0.253 µM) of the same cell line?
A: The relative viability was 0.442.

Q: What about the relative viability ([2]; first compound 0.8 µM) of the same cell line?
A: Its relative viability is 0.301.

Q: And the relative viability ([2]; first compound 2.53 µM)?
A: The relative viability was 0.131.

Q: And the relative viability ([2]; first compound 8 µM)?
A: Its relative viability is 0.0733.

Q: What about the relative viability ([3]; first compound 0.08 µM) of the same cell line?
A: Its relative viability is 0.51.

Q: What about the relative viability ([3]; first compound 0.253 µM) of the same cell line?
A: The relative viability was 0.652.

Q: What about the relative viability ([3]; first compound 0.8 µM) of the same cell line?
A: The relative viability was 0.451.

Q: And the relative viability ([3]; first compound 2.53 µM)?
A: Its relative viability is 0.111.

Q: And the relative viability ([3]; first compound 8 µM)?
A: The relative viability was 0.0605.

Q: Which results are given for NCI-H2228?
A: relative viability ([2]; first compound 0.08 µM): 0.64; relative viability ([2]; first compound 0.253 µM): 0.727; relative viability ([2]; first compound 0.8 µM): 0.518; relative viability ([2]; first compound 2.53 µM): 0.0712; relative viability ([2]; first compound 8 µM): 0.0545

Q: What does the source list for NCI-H1650?
A: relative viability (Obatoclax + Decitabine; first compound 0.01 µM): 0.457; relative viability (Obatoclax + Decitabine; first compound 0.03162 µM): 0.352; relative viability (Obatoclax + Decitabine; first compound 0.1 µM): 0.47; relative viability (Obatoclax + Decitabine; first compound 0.3162 µM): 0.268; relative viability (Obatoclax + Decitabine; first compound 1 µM): 0.267; relative viability ([2]; first compound 0.08 µM): 0.285; relative viability ([2]; first compound 0.253 µM): 0.414; relative viability ([2]; first compound 0.8 µM): 0.351; relative viability ([2]; first compound 2.53 µM): 0.201; relative viability ([2]; first compound 8 µM): 0.0872; relative viability ([3]; first compound 0.08 µM): 0.333; relative viability ([3]; first compound 0.253 µM): 0.454; relative viability ([3]; first compound 0.8 µM): 0.389; relative viability ([3]; first compound 2.53 µM): 0.297; relative viability ([3]; first compound 8 µM): 0.113

Q: For NCI-H1944, which relative viability ([1]; first compound 0.08 µM) is on record?
A: Its relative viability is 0.539.

Q: And the relative viability ([1]; first compound 0.253 µM)?
A: Its relative viability is 0.524.

Q: And the relative viability ([1]; first compound 0.8 µM)?
A: The relative viability was 0.469.

Q: What about the relative viability ([1]; first compound 2.53 µM) of the same cell line?
A: The relative viability was 0.229.

Q: What about the relative viability ([1]; first compound 8 µM) of the same cell line?
A: The relative viability was 0.117.

Q: What about the relative viability (Obatoclax + Decitabine; first compound 0.01 µM) of the same cell line?
A: The relative viability was 0.429.

Q: And the relative viability (Obatoclax + Decitabine; first compound 0.03162 µM)?
A: The relative viability was 0.42.

Q: What about the relative viability (Obatoclax + Decitabine; first compound 0.1 µM) of the same cell line?
A: Its relative viability is 0.464.

Q: What about the relative viability (Obatoclax + Decitabine; first compound 0.3162 µM) of the same cell line?
A: The relative viability was 0.431.

Q: What about the relative viability (Obatoclax + Decitabine; first compound 1 µM) of the same cell line?
A: Its relative viability is 0.388.

Q: And the relative viability ([2]; first compound 0.08 µM)?
A: The relative viability was 0.373.

Q: And the relative viability ([2]; first compound 0.253 µM)?
A: The relative viability was 0.341.

Q: And the relative viability ([2]; first compound 0.8 µM)?
A: The relative viability was 0.338.

Q: And the relative viability ([2]; first compound 2.53 µM)?
A: The relative viability was 0.264.

Q: And the relative viability ([2]; first compound 8 µM)?
A: Its relative viability is 0.189.

Q: And the relative viability ([3]; first compound 0.08 µM)?
A: The relative viability was 0.4.

Q: And the relative viability ([3]; first compound 0.253 µM)?
A: Its relative viability is 0.485.

Q: What about the relative viability ([3]; first compound 0.8 µM) of the same cell line?
A: The relative viability was 0.478.

Q: What about the relative viability ([3]; first compound 2.53 µM) of the same cell line?
A: The relative viability was 0.351.

Q: And the relative viability ([3]; first compound 8 µM)?
A: Its relative viability is 0.252.
